Laboratory results: patent US7312240B2, “Conformationally constrained paclitaxel analogs and their use as anticancer and anti-Alzheimers agents” (Virginia Tech Intellectual Properties, Inc., priority 2004, dated 2007)

How the values were obtained:
GDP-tubulin = test: Critical concentration determination of tubulin assembly; type: biochemical; settings: Taxoid concentration 10 μM; 37° C., PME buffer, 4% DMSO
Experimental: Critical Concentration Determination. The critical concentration of tubulin in the presence of 10 μM Taxol or Taxol analog was determined from assembly experiments performed at 37° C. with GDP-tubulin in PME buffer (100 mM PIPES, 2 mM MgSO4, 1 mM EGTA, pH=6.90) containing 4% DMSO. The extent of assembly was measured at different tubulin concentrations (0.5-6 μM) by light scattering (apparent absorption at 350 nm). Critical concentrations were calculated from the x-intercepts of plots of apparent A350 nm VS. tubulin concentration.

[1] = system: Taxol binding site on crosslinked microtubules (polymerized tubulin); test: Competition binding with fluorescent Taxol N-AB-PT; settings: for Inhibit binding F-Taxol: 10 μM Taxol or Taxoid, 5 μM N-AB-PT, 5 μM crosslinked microtubules; for competition experiment with fluorescent Taxol, compared with Taxol/PTX: N-AB-PT 5 μM, increasing competitor (0-30 μM), FIG. 14
Experimental: Competition Binding Experiments. The relative affinities of Taxol and derivatives for polymerized tubulin were assessed by competition assays. Crosslinked microtubules were prepared in glycerol assembly buffer (10 mM phosphate, 1 mM EGTA, 0.1 mM GTP 3.4 M glycerol, pH 6.9) as described by Andreu and Barasoain. Prior to use, the crosslinked microtubules were dialyzed against PME buffer for 16-18 hr. Crosslinked microtubules (5 μM) and the fluorescent Taxol derivative N-AB-PT (15, 5 μM) in PME buffer were incubated for 20 min at room temperature with 10 μM of Taxol or the Taxoid. The fluorescence emission intensity at 412 nm of each sample was recorded using a Jobin-Yvon Horiba Fluoromax-3 spectrofluorometer in a 2 mm×10 mm quartz cell (1ex=320 nm) and compared to the emission intensity of the system in the absence of competitor.
For the fall competition experiment, microtubules, N-AB-PT and varying concentrations of Taxol or 13b (0-30 μM) were treated in the same manner and their emission intensities were measured. The full competition experiment was repeated using pure tubulin assembled by N-AB-PT and identical results were obtained (data not shown).

purified tubulin = settings: for EC50: read-out: ED50, Tb polymerization, Tubulin concentration 5 μM
PC-3 prostate cell line = test: Cytotoxicity against PC3 prostate cancer cell line; settings: for IC50(cp)/IC50(tx) PC3: ratio of compound IC50 to Taxol IC50, PC3
[2] = system: A2780 ovarian cancer cell line; test: Cytotoxicity against A2780 ovarian cancer cell line; settings: for IC50(cp)/IC50(tx) A2780: ratio of compound IC50 to Taxol IC50, A2780; for Cytotoxicity (IC50, μg/ml) A2780: Example 2, A2780

## CC(=O)O[C@H]1C(=O)[C@@]2(C)[C@@H]3[C@H](OC(=O)c4ccccc4)[C@]4(O)C[C@H](OC(=O)[C@H](O)[C@@H](NC(=O)c5ccccc5)c5ccccc5C/C=C\C(=O)O[C@]35CO[C@@H]5C[C@@H]2O)C(C)=C1C4(C)C [Compound 13a]
GDP-tubulin
  Critical Tb conc.: 0.53 ± 0.07 µM
[1]
  Inhibit binding F-Taxol: 72%
Purified tubulin
  EC50: 300 ± 90 nM
PC-3 prostate cell line
  cytotoxicity against PC3 in words, compared with PTX/Taxol: slightly more cytotoxic than Taxol
  IC50(cp)/IC50(tx) PC3: 0.69
[2]; A2780
  cytotoxicity against A2780 in words, compared with PTX/Taxol or related analogs: approximately twenty times more potent than Taxol
  fold more potent than previous best analog 15: approximately 300 fold
[2]
  IC50(cp)/IC50(tx) A2780: 0.045

## CC(=O)O[C@H]1C(=O)[C@@]2(C)[C@@H]3[C@H](OC(=O)c4ccccc4)[C@]4(O)C[C@H](OC(=O)[C@H](O)[C@@H](NC(=O)c5ccccc5)c5cccc(c5)OCCCCCC(=O)O[C@]35CO[C@@H]5C[C@@H]2O)C(C)=C1C4(C)C [Compound 16e]
[2]; A2780
  cytotoxicity against A2780 in words, compared with PTX/Taxol or related analogs: much less than the unsaturated 15e and 15f

## CC(=O)O[C@H]1C(=O)[C@@]2(C)[C@@H]3[C@H](OC(=O)c4ccccc4)[C@]4(O)C[C@H](OC(=O)[C@H](O)[C@@H](NC(=O)c5ccccc5)c5ccccc5OCCCCC(=O)O[C@]35CO[C@@H]5C[C@@H]2O)C(C)=C1C4(C)C [Compound 16c]
PC-3 prostate cell line
  cytotoxicity against PC3 in words, compared with PTX/Taxol: more or less equal cytotoxicity
[2]; A2780
  cytotoxicity against A2780 in words, compared with PTX/Taxol or related analogs: more or less equal cytotoxicity

## CC(=O)OC1C(=O)C2(C)C(O)CC3OCC34OC(=O)CCCOc3ccccc3C(NC(=O)c3ccccc3)C(O)C(=O)OC3CC(O)(C(OC(=O)c5ccccc5)C42)C(C)(C)C1=C3C (stereo not drawn) [Compound 14b]
GDP-tubulin
  Critical Tb conc.: 1.3 ± 0.33 µM
[1]
  Inhibit binding F-Taxol: 7%
Purified tubulin
  EC50: 830 ± 190 nM
PC-3 prostate cell line
  cytotoxicity against PC3 in words, compared with PTX/Taxol: slightly less potent
  IC50(cp)/IC50(tx) PC3: 3.3
[2]; A2780
  cytotoxicity against A2780 in words, compared with PTX/Taxol or related analogs: slightly less potent
[2]
  IC50(cp)/IC50(tx) A2780: 1.2

## C=CCCC(=O)OC12COC1CC(O)C1(C)C(=O)C(OC(C)=O)C3=C(C)C(OC(=O)C(O)C(NC(=O)c4ccccc4)c4ccccc4OCC=C)CC(O)(C(OC(=O)c4ccccc4)C21)C3(C)C (stereo not drawn) [Compound 13i]
[2]; A2780
  cytotoxicity against A2780 in words, compared with PTX/Taxol or related analogs: better cytotoxicites than their macrocyclic counter parts

## C=CC(=O)O[C@@]12CO[C@@H]1C[C@H](O)[C@@]1(C)C(=O)[C@H](OC(C)=O)C3=C(C)[C@@H](OC(=O)[C@H](O)[C@@H](NC(=O)c4ccccc4)c4ccccc4O/C=C\C)C[C@@](O)([C@@H](OC(=O)c4ccccc4)C12)C3(C)C (stereo partly drawn) [Compound 12b]
Purified tubulin
  EC50: 1020 ± 370 nM
PC-3 prostate cell line
  cytotoxicity against PC3 in words, compared with PTX/Taxol: over two orders of magnitude less cytotoxic
  IC50(cp)/IC50(tx) PC3: 150
[2]; A2780
  cytotoxicity against A2780 in words, compared with PTX/Taxol or related analogs: over three orders of magnitude less cytotoxic
[2]
  IC50(cp)/IC50(tx) A2780: 1190

## CC(=O)O[C@H]1C(=O)[C@@]2(C)[C@@H]3[C@H](OC(=O)c4ccccc4)[C@]4(O)C[C@H](OC(=O)[C@H](O)[C@@H](NC(=O)c5ccccc5)c5ccccc5OCCCC(=O)O[C@]35CO[C@@H]5C[C@@H]2O)C(C)=C1C4(C)C [Compound 16b]
[1]
  inhibition of binding of fluorescent taxol, compared with paclitaxel, in words: better than paclitaxel
Purified tubulin
  tubulin polymerization activity in words, compared to PTX: superior to PTX
PC-3 prostate cell line
  cytotoxicity against PC3 in words, compared with PTX/Taxol: more or less equal cytotoxicity
[2]; A2780
  cytotoxicity against A2780 in words, compared with PTX/Taxol or related analogs: more or less equal cytotoxicity

## CC(=O)O[C@H]1C(=O)[C@@]2(C)[C@@H]3[C@H](OC(=O)c4ccccc4)[C@]4(O)C[C@H](OC(=O)[C@H](O)[C@@H](NC(=O)c5ccccc5)c5cccc(c5)OC/C=C\CCC(=O)O[C@]35CO[C@@H]5C[C@@H]2O)C(C)=C1C4(C)C [Compound 15e]
Purified tubulin
  tubulin polymerization activity in words, compared to PTX: comparable

## CC(=O)O[C@H]1C(=O)[C@@]2(C)[C@@H]3[C@H](OC(=O)c4ccccc4)[C@]4(O)C[C@H](OC(=O)[C@H](O)[C@@H](NC(=O)c5ccccc5)c5ccccc5OCC/C=C/C(=O)O[C@]35CO[C@@H]5C[C@@H]2O)C(C)=C1C4(C)C [Compound 15c]
PC-3 prostate cell line
  cytotoxicity against PC3 in words, compared with PTX/Taxol: more or less equal cytotoxicity
[2]; A2780
  cytotoxicity against A2780 in words, compared with PTX/Taxol or related analogs: more or less equal cytotoxicity

## CC(=O)OC1C(=O)C2(C)C(O)CC3OCC34OC(=O)CCCc3ccccc3C(NC(=O)c3ccccc3)C(O)C(=O)OC3CC(O)(C(OC(=O)c5ccccc5)C42)C(C)(C)C1=C3C (stereo not drawn) [Compound 14a]
GDP-tubulin
  Critical Tb conc.: 0.35 ± 0.06 µM
[1]
  Inhibit binding F-Taxol: 79%
Purified tubulin
  EC50: 210 ± 90 nM
PC-3 prostate cell line
  cytotoxicity against PC3 in words, compared with PTX/Taxol: more potent than Taxol
  IC50(cp)/IC50(tx) PC3: 0.67
[2]; A2780
  cytotoxicity against A2780 in words, compared with PTX/Taxol or related analogs: more potent than Taxol
[2]
  IC50(cp)/IC50(tx) A2780: 0.08

## CC(=O)O[C@H]1C(=O)[C@@]2(C)[C@H]([C@H](OC(=O)c3ccccc3)[C@]3(O)C[C@H](OC(=O)[C@H](O)[C@@H](NC(=O)c4ccccc4)c4ccccc4)C(C)=C1C3(C)C)[C@]1(OC(C)=O)CO[C@@H]1C[C@@H]2O [Taxol, Paclitaxel]
GDP-tubulin
  Critical Tb conc.: 1.8 ± 0.30 µM
[1]
  Inhibit binding F-Taxol: 26%
Purified tubulin
  EC50: 500 ± 140 nM
[2]
  Cytotoxicity (IC50, μg/ml) A2780: 0.02 µg/mL

## CC(=O)O[C@H]1C(=O)[C@@]2(C)[C@@H]3[C@H](OC(=O)c4ccccc4)[C@]4(O)C[C@H](OC(=O)[C@H](O)[C@@H](NC(=O)c5ccccc5)c5ccccc5/C=C/CC(=O)O[C@]35CO[C@@H]5C[C@@H]2O)C(C)=C1C4(C)C [Compound 15J]
[1]
  inhibition of binding of fluorescent taxol, compared with paclitaxel, in words: better than paclitaxel
Purified tubulin
  tubulin polymerization activity in words, compared to PTX: superior to PTX
PC-3 prostate cell line; PC3 cell line
  fold more cytotoxicity compared to PTX against PC3: 2 fold
[2]; A2780 cell line, cell line not named
  fold more cytotoxicity compared to PTX: 6 fold

## O=C1/C=C/COc2cccc(c2)[C@H](NC(=O)c2ccccc2)[C@@H](O)C(=O)OC2CC3CC(CO1)C(OC(=O)c1ccccc1)C(C3)C2 (stereo partly drawn) [Compound 20b]
[2]; A2780
  cytotoxicity against A2780 in words, compared with PTX/Taxol or related analogs: less active than 18 and 19
[2]
  Cytotoxicity (IC50, μg/ml) A2780: >100 µg/mL

## C=CCOc1ccccc1C(NC(=O)c1ccccc1)C(O)C(=O)OC1CC2(O)C(OC(=O)c3ccccc3)C3C4(OC(=O)C=C)COC4CC(O)C3(C)C(=O)C(OC(C)=O)C(=C1C)C2(C)C (stereo not drawn) [Compound 13c]
PC-3 prostate cell line
  cytotoxicity against PC3 in words, compared with PTX/Taxol: almost inactive
[2]; A2780
  cytotoxicity against A2780 in words, compared with PTX/Taxol or related analogs: almost inactive

## CC(=O)O[C@H]1C(=O)[C@@]2(C)[C@@H]3[C@H](OC(=O)c4ccccc4)[C@]4(O)C[C@H](OC(=O)[C@H](O)[C@@H](NC(=O)c5ccccc5)c5ccccc5OC/C=C/C(=O)O[C@]35CO[C@@H]5C[C@@H]2O)C(C)=C1C4(C)C [Compound 15b]
[1]
  inhibition of binding of fluorescent taxol, compared with paclitaxel, in words: better than paclitaxel
  competition experiment with fluorescent Taxol, compared with Taxol/PTX: identical in all respect to PTX
Purified tubulin
  tubulin polymerization activity in words, compared to PTX: superior to PTX
PC-3 prostate cell line
  cytotoxicity against PC3 in words, compared with PTX/Taxol: two fold more cytotoxicity than PTX
[2]; A2780
  cytotoxicity against A2780 in words, compared with PTX/Taxol or related analogs: more or less equal cytotoxicity

## CC(=O)O[C@H]1C(=O)[C@@]2(C)[C@@H]3[C@H](OC(=O)c4ccccc4)[C@]4(O)C[C@H](OC(=O)[C@H](O)[C@@H](NC(=O)c5ccccc5)c5ccccc5OC/C=C/C(=O)O[C@]35CO[C@@H]5C[C@@H]2O)C(C)=C1C4(C)C [Compound 13b]
GDP-tubulin
  Critical Tb conc.: 1.2 ± 0.24 µM
[1]
  Inhibit binding F-Taxol: 30%
  competition experiment with fluorescent Taxol, compared with Taxol/PTX: equal affinity
Purified tubulin
  EC50: 280 ± 110 nM
PC-3 prostate cell line
  cytotoxicity against PC3 in words, compared with PTX/Taxol: equipotent with Taxol
  IC50(cp)/IC50(tx) PC3: 1.0
[2]; A2780
  cytotoxicity against A2780 in words, compared with PTX/Taxol or related analogs: equipotent with Taxol
[2]
  IC50(cp)/IC50(tx) A2780: 0.97

## CC(=O)O[C@H]1C(=O)[C@@]2(C)[C@@H]3[C@H](OC(=O)c4ccccc4)[C@]4(O)C[C@H](OC(=O)[C@H](O)[C@@H](NC(=O)c5ccccc5)c5cccc(c5)/C=C\CCC(=O)O[C@]35CO[C@@H]5C[C@@H]2O)C(C)=C1C4(C)C [Compound 15f]
Purified tubulin
  tubulin polymerization activity in words, compared to PTX: comparable

## CC(=O)O[C@H]1C(=O)[C@@]2(C)[C@@H]3[C@H](OC(=O)c4ccccc4)[C@]4(O)C[C@H](OC(=O)[C@H](O)[C@@H](NC(=O)c5ccccc5)c5cccc(c5)CCCCC(=O)O[C@]35CO[C@@H]5C[C@@H]2O)C(C)=C1C4(C)C [Compound 16f]
[2]; A2780
  cytotoxicity against A2780 in words, compared with PTX/Taxol or related analogs: much less than the unsaturated 15e and 15f

## C=CCCC(=O)OC12COC1CC(O)C1(C)C(=O)C(OC(C)=O)C3=C(C)C(OC(=O)C(O)C(NC(=O)c4ccccc4)c4cccc(C=C)c4)CC(O)(C(OC(=O)c4ccccc4)C21)C3(C)C (stereo not drawn) [Compound 13h]
[2]; A2780
  cytotoxicity against A2780 in words, compared with PTX/Taxol or related analogs: better cytotoxicites than their macrocyclic counter parts
